Columns and labels:
Format in all cases: biochemical
[1] = biological target: Zea mays EPSPS variant 771-C2 (A4W, H54M, L98C, G102A, K173R, I208L, K243E, E302S, T361S, E391P, D402G, A416G, V438R, S440R, T441Q, F442V), SEQ ID NO:4 (Zea mays, UniProt O24566, A3W/A415G/D401G/E301S/E390P/F441V/G101A/H53M/I207L/K172R/K242E/L97C/S439R/T360S/T440Q/V437R); assay: EPSPS substrate saturation kinetics, 771-C2
Method: EPSPS activity was determined by quantifying the phosphate generated from the EPSPS reaction. Release of inorganic phosphate was coupled to reaction with 2-amino-6-mercapto-7-methylpurine ribonucleoside, catalyzed by purine-nucleoside phosphorylase (M R Webb, Proc. Natl. Acad. Sci. 89:4884-4887, 1992). The absorbance change that occurs was monitored at 360 nm, where the extinction is 11,200 M^−1 cm^−1, with a Spectramax plate reader (Molecular Devices). To determine kinetic parameters, the varied substrate was present at seven concentrations (the eighth being the blank, containing no substrate) ranging from 4 to 400 uM and the unvaried substrate present at saturation. […] Reactions were monitored with a Spectramax plate reader. […] KI was then calculated from the following form of the Michaelis-Menten equation for competitive inhibition: KI=KM[I]/(KM app−KM) KM approximates the dissociation constant of the enzyme-substrate complex while kcat is the rate of conversion of substrate to product when the substrate concentration is saturating. kcat/KM is a widely accepted parameter for catalytic efficiency when substrate concentration is low (˜KM). […] The parameter kcat/KM×KI is used to quantify both catalytic efficiency and insensitivity and thus the overall fitness of the enzyme. […]

[2] = biological target: Zea mays EPSPS variant 208V 313G (Zea mays, UniProt O24566, E312G/I207V); assay: EPSPS reaction rate with or without 10 uM glyphosate, 208V 313G; conditions: pH 7; read-out: Reaction rate with 10 μM glyph, % no glyph; note: 50 µM PEP and S3P
[3] = biological target: T1, Zea mays EPSPS variant Zm-A189T (Zea mays, UniProt O24566, A188T); assay: Rapid two-rate method for (kcat/KM)*KI, Zm-A189T; conditions: [E] 0.07 uM, [Gly] 1000 uM
T1 sequence (O24566 with tags, fused parts or gaps A188T): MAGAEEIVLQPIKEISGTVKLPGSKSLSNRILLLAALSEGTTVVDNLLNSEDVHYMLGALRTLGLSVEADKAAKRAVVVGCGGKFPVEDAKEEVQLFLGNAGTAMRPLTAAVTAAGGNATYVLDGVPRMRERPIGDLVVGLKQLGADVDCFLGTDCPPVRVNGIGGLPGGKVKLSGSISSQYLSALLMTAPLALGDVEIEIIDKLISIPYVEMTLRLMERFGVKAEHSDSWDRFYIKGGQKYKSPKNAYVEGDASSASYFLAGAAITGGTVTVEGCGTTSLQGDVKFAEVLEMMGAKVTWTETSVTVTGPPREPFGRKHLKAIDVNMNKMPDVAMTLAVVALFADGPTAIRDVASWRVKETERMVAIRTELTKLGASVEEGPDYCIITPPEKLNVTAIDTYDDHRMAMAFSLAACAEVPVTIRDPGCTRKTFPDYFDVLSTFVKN
Text: (§1) There are several practical considerations for accurately estimating (kcat/KM)*KI with the rapid method. […] 2) The inhibitor concentration must be adjusted so as to obtain a degree of inhibition that minimally amplifies the error in the term v0-vi in Equation 3. If inhibition is too little, v0-vi will be small, and the error in the multiplier vi×v0/(v0-vi) will be large. […] 3) Substrate concentration should be set at the approximate KM of the parental variant(s), subject to the sensitivity of the assay. High substrate concentration obscures sensitivity to the inhibitor and reduces stringency for capturing improvements in KM. Depending on the necessity for speed, there exists opportunity for customizing enzyme and inhibitor concentrations. […] The rapid method was repeated for those and obtained data that correlated better with data obtained by substrate saturation analysis. For screening purposes however, that correlation step is not necessary. Conditions can be set so that variants with a pre-determined minimal fitness level are accurately quantified.
(§2) In Table 15, parameters above the heavy line for the rapid method were obtained under standard conditions. For variants shown below the heavy line, the rapid analysis was repeated with enzyme or glyphosate concentrations adjusted as needed to generate sufficient signal within the limits for linear initial rates.

[4] = biological target: T2, Zea mays EPSPS variant Zm-H6 (868-H6) with A36G (H6-A36G) (Zea mays, UniProt O24566, A1R/A35G/A3W/A415G/A71Q/D401G/E301S/E390G/G101A/I207L/K83R/L97C/T278A/T360S/T440Q/V437R); assay: Rapid two-rate method for (kcat/KM)*KI, H6-A36G; conditions: [E] 0.07 uM, [Gly] 1000 uM
T2 sequence (O24566 with tags, fused parts or gaps A1R/A3W/A35G/A71Q/K83R/L97C/G101A/I207L/T278A/E301S/T360S/E390G/D401G/A415G/V437R/T440Q): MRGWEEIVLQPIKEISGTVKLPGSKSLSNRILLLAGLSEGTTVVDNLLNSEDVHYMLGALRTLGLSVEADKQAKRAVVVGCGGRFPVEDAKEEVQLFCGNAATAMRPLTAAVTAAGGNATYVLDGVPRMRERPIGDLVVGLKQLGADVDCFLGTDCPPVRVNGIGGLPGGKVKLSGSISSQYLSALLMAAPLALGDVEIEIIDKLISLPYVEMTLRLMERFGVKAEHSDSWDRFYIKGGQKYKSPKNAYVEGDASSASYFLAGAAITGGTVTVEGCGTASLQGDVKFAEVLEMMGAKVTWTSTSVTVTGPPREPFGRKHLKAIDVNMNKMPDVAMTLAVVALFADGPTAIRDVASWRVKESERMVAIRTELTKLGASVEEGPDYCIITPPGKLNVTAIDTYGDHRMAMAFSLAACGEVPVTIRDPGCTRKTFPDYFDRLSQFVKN
Text: as §1, §2

Sequence of Zea mays EPSPS variant 208V 313G (O24566 1-444 I207V/E312G): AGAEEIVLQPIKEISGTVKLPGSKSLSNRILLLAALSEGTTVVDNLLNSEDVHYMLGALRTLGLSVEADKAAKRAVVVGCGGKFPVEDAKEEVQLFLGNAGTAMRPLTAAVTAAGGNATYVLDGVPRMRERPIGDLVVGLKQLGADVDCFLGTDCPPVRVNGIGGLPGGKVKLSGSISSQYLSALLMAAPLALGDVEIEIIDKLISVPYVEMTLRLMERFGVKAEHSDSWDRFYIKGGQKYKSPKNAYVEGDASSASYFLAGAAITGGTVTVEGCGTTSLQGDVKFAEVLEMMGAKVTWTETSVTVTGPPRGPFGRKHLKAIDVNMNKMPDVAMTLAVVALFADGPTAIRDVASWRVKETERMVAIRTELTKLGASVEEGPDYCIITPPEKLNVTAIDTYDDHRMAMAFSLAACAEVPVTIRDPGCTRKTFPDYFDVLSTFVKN

For `O=C(O)CNCP(=O)(O)O` [glyphosate, N-phosphonomethylglycine], the Ki [1] was 350 µM, the “(kcat/KM)*KI” value ([1]; PEP as substrate, glyphosate as inhibitor) was 5800 and the activity at 10 µM [2] was 3.21%. The “(kcat/KM)*KI” value [3] was 431 and the “(kcat/KM)*KI” value [4] was 4500.

Reference: US11549123B2, “Plant EPSP synthases and methods of use” (PIONEER HI-BRED INTERNATIONAL, INC., priority 2015, dated 2023)
